# No end group written: not given here.
# Key:
# [1] = doses as high as 800 times the recommended human dose; cited from earlier work
# [2] = cited from earlier work
# [3] = TA1 0.28 or 0.57 mg/kg s.c. with vaccine
# Description: The vaccine (either Agrippal influPozzi seasonal vaccine, non-adjuvanted, or Fluad, MF-59 adjuvanted) was administered via intramuscular injection to the right leg at a full human dose of 0.5 mL. TA1 (0.285 or 0.570 mg/kg/dose) was administered by the subcutaneous route at a dose volume that, using a scaling factor for ferret/human dosing, corresponding to approximate human doses of 3.2 or 6.4 mg/kg. Animals were observed twice daily for mortality, general health, and both local and systemic signs of toxicity and illness as well as behavior under the responsibility of a professional veterinarian. Body weights were recorded prior to dosing only.
# [4] = cited from earlier work; remark: listed apart in the source
# [5] = TA1 0.3-1.2 mg/kg/dose i.p. with Fluvirin
substance,measurement,setting,value
"Ac-SDAAVDTSSEITTKDLKEKKEVVEEAEN [TA1, (N-acetyl)-Ser-Asp-Ala-Ala-Val-Asp-Thr-Ser-Ser-Glu-11e-Thr-Thr-Lys-Asp-Leu-Lys-Glu-Lys-Lys-Glu-Val-Val-Glu-Glu-Ala-Glu-Asn-OH]",adverse clinical signs,[1],no evidence of adverse clinical signs
same,worsening of side effects in combination,[2]; TA1 combined with other agents such as interferon and chemotherapy,Nor has there been any worsening of side effects
same,drug-related side effects,"[2]; more than 3,000 patients (adults, elderly, children; hepatitis B and C, primary immunodeficiency, cancers)",virtually no drug-related side effects
same,"safety and tolerability, cage-side observations",[3],safe and well-tolerated
same,Peak plasma levels,[4]; after injection of 3.2 mg of TA1 (about 40 μg/kg),approximately 100 ng/ml
same,half-life of TA1 in the circulation,[4]; in vivo,about 2 hours
same,plasma half-life,[4]; subcutaneously injected TA1,about two
same,clinical/cageside observations and body weight effects,[5],no test article-related clinical/cageside observations or body weight effects
same,survival,[5],All animals survived until scheduled termination

# Source: US20140213506A1, “THYMOSIN ALPHA PEPTIDE FOR PREVENTING, REDUCING THE SEVERITY OF, AND TREATING INFECTION” (priority 2011, published 2014)
